In paper PMC11555678, “Improved Broad Spectrum Antifungal Drug Synergies with Cryptomycin, a Cdc50-Inspired Antifungal Peptide” (ACS Infectious Diseases, 2024):
≈ marks a conversion by molar mass, not a printed value. Like-named read-outs stand apart in the source and are kept apart here.

Assays:
[1] = system: C. auris B11245; assay: microbe, parasite or virus in culture; format: cell-based, Candida auris
Outline: (§1)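 Testing follows the CLSI M27 protocol for yeasts: test compounds are diluted 2-fold serially in RPMI1640, and washed overnight cells are added at 5000 cfu/mL before 2 days' incubation at 37 °C.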

[2] = system: Cn apt1Δ; assay: microbe, parasite or virus in culture; format: cell-based, Cryptococcus neoformans; conditions: Cryptococcus neoformans, 48 h, 37 °C, 48 h
[3] = system: Cn Crm1-oe; assay: microbe, parasite or virus in culture; format: cell-based, Cryptococcus neoformans; conditions: Cryptococcus neoformans, CRM1OE, 48 h, 37 °C
[4] = system: Cn crm1Δ; assay: microbe, parasite or virus in culture; format: cell-based, Cryptococcus neoformans; conditions: Cryptococcus neoformans, 48 h, 37 °C
[5] = system: C. albicans SC5413; format: cell-based, Candida albicans; conditions: RPMI1640, 37 °C, 48 h; for MIC of antifungal in combination with KKOO: azole MICs unclear (intermediate phenotype); for MIC of antifungal in combination with KKOO-NH2: azole MICs could not be determined (intermediate phenotype)
Method: (§2) All microdilution assays with fungi were carried out in accordance with CLSI protocols from M27 for yeasts and M38 for filamentous fungi, respectively, unless otherwise specified.[64],[65] Briefly, 96-well plates were charged with RPMI1640 media, with operating volume in the first column, 200 μL, and half operating volume, 100 μL, in the remaining wells. Drug stock solution in DMSO was aliquoted into the first well in each row. Half of the volume in the dosed well was serially diluted 2-fold until column 11. Column 11 was used as the negative growth control, and column 12 was used as the positive growth control. ON yeast cultures in YPD were washed twice in DD-H2O, resuspended in PBS, and adjusted to 5000 cfu/mL in RPMI. The 96-well plate was inoculated with 100 μL aliquots of cell suspension per well. Plates were incubated at 37 °C for 2 days.
(§3) To assess drug synergy, the initial media charged to the plate contained the peptide at twice the final operating concentration; the remaining processing steps were identical to the MIC experiment. Upon addition of 100 μL of inoculant, the final operating concentration was achieved. Control MIC plates were prepared alongside drug synergy plates to account for the day-to-day variability in any individual MIC. FIC index is computed using eq 1. All MIC assays and drug synergy assays were completed with two technical replicates per 96-well plate and a minimum of two biological replicates per drug combination. If a difference in MIC between the two technical replicates on the plate were observed, only the higher concentration was reported as the MIC to reduce the possibility of type 1 error (false positive) [drawing 1] 1

[6] = system: Cn MRL862; format: cell-based, Cryptococcus neoformans; conditions: RPMI1640, 37 °C, 48 h
Method: as §2, §3

[7] = system: A. fumigatus AF293; assay: microbe, parasite or virus in culture; format: cell-based, Aspergillus fumigatus
[8] = system: C. auris B11245; format: cell-based, Candida auris; conditions: RPMI1640, 37 °C, 48 h; for MIC of antifungal in combination with KKOO-NH2: MIC = well with <20% growth
Method: as §2, §3

[9] = system: C. glabrata FKS1-S629P; assay: microbe, parasite or virus in culture; format: cell-based, Candida glabrata; conditions: Nakaseomyces glabratus, FKS1S629P, 48 h
Outline: as §1

[10] = system: C. glabrata 2001; assay: microbe, parasite or virus in culture; format: cell-based, Candida glabrata; conditions: Nakaseomyces glabratus, 2001; compound alone; RPMI1640, 37 °C, 48 h; read-out: MIC
Outline: as §1

[11] = system: C. glabrata FKS2-S663P; assay: microbe, parasite or virus in culture; format: cell-based, Candida glabrata; conditions: Nakaseomyces glabratus, FKS2S663P, 48 h
Outline: as §1

[12] = system: Cg FKS2 S663P; assay: Drug synergy (MIC in peptide-supplemented media); format: cell-based, Candida glabrata; conditions: RPMI1640, 37 °C, 48 h
Method: as §2, §3

[13] = system: Cg FKS1 S629P; assay: Drug synergy (MIC in peptide-supplemented media); format: cell-based, Candida glabrata; conditions: RPMI1640, 37 °C, 48 h
Method: as §2, §3

[14] = system: C. glabrata 2001; format: cell-based, Candida glabrata; conditions: RPMI1640, 37 °C, 48 h
Method: as §2, §3

[15] = compound alone, RPMI1640, 37 °C, 48 h, * = paradoxical growth observed (CAS)

Q: How did the MIC ([1]; Candidozyma auris, B11245, 48 h) turn out when `OC(Cn1cncn1)(Cn1cncn1)c1ccc(F)cc1F` [FLC, fluconazole] was run?
A: > 128 µg/mL

Q: What about the MIC [1, 15] of the same compound?
A: >128 µg/mL

Q: And the MIC ([2]; YPD + 0 mM Ca2+)?
A: 0.25 µg/mL

Q: What about the MIC ([2]; YPD + 2.5 mM Ca2+) of the same compound?
A: 0.5 µg/mL

Q: What about the MIC ([2]; YPD + 5 mM Ca2+) of the same compound?
A: 1 µg/mL

Q: And the MIC ([2]; YPD + 10 mM Ca2+)?
A: 0.5 µg/mL

Q: What about the MIC ([2]; YPD + 20 mM Ca2+) of the same compound?
A: 0.5 µg/mL

Q: And the MIC ([3]; YPD + 0 mM Ca2+)?
A: 1 µg/mL

Q: And the MIC ([3]; YPD + 2.5 mM Ca2+)?
A: 2 µg/mL

Q: And the MIC ([3]; YPD + 5 mM Ca2+)?
A: 2 µg/mL

Q: And the MIC ([3]; YPD + 10 mM Ca2+)?
A: 2 µg/mL

Q: And the MIC ([3]; YPD + 20 mM Ca2+)?
A: 2 µg/mL

Q: What about the MIC ([4]; YPD + 0 mM Ca2+) of the same compound?
A: 4 µg/mL

Q: What about the MIC ([4]; YPD + 2.5 mM Ca2+) of the same compound?
A: 4 µg/mL

Q: What about the MIC ([4]; YPD + 5 mM Ca2+) of the same compound?
A: 4 µg/mL

Q: What about the MIC ([4]; YPD + 10 mM Ca2+) of the same compound?
A: 8 µg/mL

Q: And the MIC ([4]; YPD + 20 mM Ca2+)?
A: 8 µg/mL

Q: What about the “MIC of antifungal in combination with KKOO” value ([5]; +0 μg/mL KKOO (control)) of the same compound?
A: > 16 µg/mL

Q: And the “MIC of antifungal in combination with KKOO-NH2” value (shortened to “MIC … with KKOO-NH2”) ([5]; +0 μg/mL KKOO-NH2 (control))?
A: >16 µg/mL

Q: What about the “MIC … with KKOO-NH2” value ([5]; +1 μg/mL KKOO-NH2) of the same compound?
A: >16 µg/mL

Q: And the “MIC of antifungal in combination with KKOO” value ([5]; +1 μg/mL KKOO)?
A: > 16 µg/mL

Q: And the “MIC … with KKOO-NH2” value ([5]; +2 μg/mL KKOO-NH2)?
A: >16 µg/mL

Q: What about the “MIC of antifungal in combination with KKOO” value ([5]; +2 μg/mL KKOO) of the same compound?
A: > 16 µg/mL

Q: And the “MIC … with KKOO-NH2” value ([5]; +4 μg/mL KKOO-NH2)?
A: >16 µg/mL

Q: And the “MIC of antifungal in combination with KKOO” value ([5]; +4 μg/mL KKOO)?
A: > 16 µg/mL

Q: What about the “MIC of antifungal in combination with KKOO” value ([5]; +8 μg/mL KKOO) of the same compound?
A: 0.125 µg/mL

Q: What about the “MIC of antifungal in combination with KKOO” value ([6]; +0 μg/mL KKOO (control)) of the same compound?
A: 32 µg/mL

Q: And the “MIC … with KKOO-NH2” value ([6]; +0 μg/mL KKOO-NH2 (control))?
A: 32 µg/mL

Q: What about the “MIC … with KKOO-NH2” value ([6]; +1 μg/mL KKOO-NH2) of the same compound?
A: 32 µg/mL

Q: What about the “MIC of antifungal in combination with KKOO” value ([6]; +1 μg/mL KKOO) of the same compound?
A: 64 µg/mL

Q: And the “MIC … with KKOO-NH2” value ([6]; +2 μg/mL KKOO-NH2)?
A: 32 µg/mL

Q: And the “MIC of antifungal in combination with KKOO” value ([6]; +2 μg/mL KKOO)?
A: 32 µg/mL

Q: What about the “MIC … with KKOO-NH2” value ([6]; +4 μg/mL KKOO-NH2) of the same compound?
A: 32 µg/mL

Q: What about the “MIC of antifungal in combination with KKOO” value ([6]; +4 μg/mL KKOO) of the same compound?
A: 32 µg/mL

Q: And the MIC ([7]; Aspergillus fumigatus, AF293, 48 h)?
A: > 128 µg/mL

Q: What about the MIC [7, 15] of the same compound?
A: >128 µg/mL

Q: And the “MIC of antifungal in combination with KKOO” value ([8]; +0 μg/mL KKOO (control), CAS: paradoxical growth, MIC = <20% growth)?
A: > 128 µg/mL

Q: What about the “MIC … with KKOO-NH2” value ([8]; +0 μg/mL KKOO-NH2 (control), CAS: paradoxical growth) of the same compound?
A: >128 µg/mL

Q: What about the “MIC … with KKOO-NH2” value ([8]; +1 μg/mL KKOO-NH2, CAS: paradoxical growth) of the same compound?
A: >128 µg/mL

Q: And the “MIC of antifungal in combination with KKOO” value ([8]; +1 μg/mL KKOO, CAS: paradoxical growth, MIC = <20% growth)?
A: > 128 µg/mL

Q: What about the “MIC … with KKOO-NH2” value ([8]; +2 μg/mL KKOO-NH2, CAS: paradoxical growth) of the same compound?
A: >128 µg/mL

Q: And the “MIC of antifungal in combination with KKOO” value ([8]; +2 μg/mL KKOO, CAS: paradoxical growth, MIC = <20% growth)?
A: > 128 µg/mL

Q: What about the “MIC … with KKOO-NH2” value ([8]; +4 μg/mL KKOO-NH2, CAS: paradoxical growth) of the same compound?
A: >128 µg/mL

Q: What about the “MIC of antifungal in combination with KKOO” value ([8]; +4 μg/mL KKOO, CAS: paradoxical growth, MIC = <20% growth) of the same compound?
A: > 128 µg/mL

Q: And the “MIC of antifungal in combination with KKOO” value ([8]; +8 μg/mL KKOO)?
A: > 128 µg/mL

Q: And the MIC [9]?
A: 2 µg/mL (≈ 6.53 µM)

Q: And the MIC [10]?
A: 8 µg/mL (≈ 26.1 µM)

Q: And the MIC [11]?
A: 2 µg/mL (≈ 6.53 µM)

Q: And the “MIC of antifungal in combination with KKOO” value ([12]; +0 μg/mL KKOO (control))?
A: 0.5 µg/mL

Q: And the “MIC … with KKOO-NH2” value ([12]; +0 μg/mL KKOO-NH2 (control))?
A: 0.5 µg/mL

Q: And the “MIC … with KKOO-NH2” value ([12]; +1 μg/mL KKOO-NH2)?
A: 0.5 µg/mL

Q: And the “MIC of antifungal in combination with KKOO” value ([12]; +1 μg/mL KKOO)?
A: 0.5 µg/mL

Q: And the “MIC … with KKOO-NH2” value ([12]; +2 μg/mL KKOO-NH2)?
A: 0.5 µg/mL

Q: And the “MIC of antifungal in combination with KKOO” value ([12]; +2 μg/mL KKOO)?
A: 0.5 µg/mL

Q: And the “MIC … with KKOO-NH2” value ([12]; +4 μg/mL KKOO-NH2)?
A: 0.5 µg/mL

Q: And the “MIC of antifungal in combination with KKOO” value ([12]; +4 μg/mL KKOO)?
A: 0.5 µg/mL

Q: And the “MIC of antifungal in combination with KKOO” value ([13]; +0 μg/mL KKOO (control))?
A: 2 µg/mL

Q: And the “MIC … with KKOO-NH2” value ([13]; +0 μg/mL KKOO-NH2 (control))?
A: 2 µg/mL

Q: What about the “MIC … with KKOO-NH2” value ([13]; +1 μg/mL KKOO-NH2) of the same compound?
A: 2 µg/mL

Q: What about the “MIC of antifungal in combination with KKOO” value ([13]; +1 μg/mL KKOO) of the same compound?
A: 2 µg/mL

Q: What about the “MIC … with KKOO-NH2” value ([13]; +2 μg/mL KKOO-NH2) of the same compound?
A: 2 µg/mL

Q: What about the “MIC of antifungal in combination with KKOO” value ([13]; +2 μg/mL KKOO) of the same compound?
A: 2 µg/mL

Q: What about the “MIC … with KKOO-NH2” value ([13]; +4 μg/mL KKOO-NH2) of the same compound?
A: 1 µg/mL

Q: And the “MIC of antifungal in combination with KKOO” value ([13]; +4 μg/mL KKOO)?
A: 2 µg/mL

Q: What about the “MIC of antifungal in combination with KKOO” value ([14]; +0 μg/mL KKOO (control)) of the same compound?
A: 8 µg/mL

Q: And the “MIC … with KKOO-NH2” value ([14]; +0 μg/mL KKOO-NH2 (control))?
A: 8 µg/mL

Q: What about the “MIC … with KKOO-NH2” value ([14]; +1 μg/mL KKOO-NH2) of the same compound?
A: 8 µg/mL

Q: What about the “MIC of antifungal in combination with KKOO” value ([14]; +1 μg/mL KKOO) of the same compound?
A: 8 µg/mL

Q: What about the “MIC … with KKOO-NH2” value ([14]; +2 μg/mL KKOO-NH2) of the same compound?
A: 8 µg/mL

Q: What about the “MIC of antifungal in combination with KKOO” value ([14]; +2 μg/mL KKOO) of the same compound?
A: 8 µg/mL

Q: And the “MIC … with KKOO-NH2” value ([14]; +4 μg/mL KKOO-NH2)?
A: 8 µg/mL

Q: And the “MIC of antifungal in combination with KKOO” value ([14]; +4 μg/mL KKOO)?
A: 4 µg/mL

Q: What about the “MIC of antifungal in combination with KKOO” value ([14]; +8 μg/mL KKOO) of the same compound?
A: 4 µg/mL
